From patent US20160046616A1, “NRF2 SMALL MOLECULE INHIBITORS FOR CANCER THERAPY” (THE JOHNS HOPKINS UNIVERSITY, priority 2013, published 2016)
pIC50: −log10 of the molar value. Like-named read-outs stand apart in the source and are kept apart here.

Legend:
[1] = system: A549 NRF2-ARE-Fluc stable cell line; experiment: A549 Nrf2 assay: NRF2-ARE firefly luciferase reporter gene assay; type: cell-based; settings: read-out: Potency of inhibition, A549
Excerpt: A549, the parental cell line, is a non-small-cell lung cancer (NSCLC) cell line with loss-of-function (LOF) Keap1 activity, thus NRF2 transcription factor constitutively translocates into the nucleus to activate the expression of downstream target genes of NRF2. A firefly luciferase reporter (Fluc) construct driven by a minimal promoter of NRF2-specific anti-oxidant responsive element (ARE) is stably expressed in the A549 cells. Compounds that reduce the translocation of NRF2 into the nucleus or prevent the interaction between NRF2 and ARE will lead to a decrease in luciferase activity.
The final concentration of DMSO was maintained at 0.46%. Control compounds Budesonide and Staurosporine were both added at a concentration of 2 mM and Budesonide also was added as a 1:10 titration, starting at 200 μM, to achieve dose-response. After an 18-24 hour incubation at 37° C., 95% humidity, and 5% CO2, 1 μL of 5× CellTiter-Fluor non-lytic cell viability assay reagent (Promega, Madison, Wis.) was added into the each well of the plates. The plates were then incubated for 30 minutes at room temperature before they were read on a ViewLux plate imager (Perkin Elmer, Waltham, Mass.) using an excitation wavelength of 405 nm and an emission wavelength of 525 nm.
A cell based reporter assay approach was used for the identification of agents that could inhibit Nrf2 mediated gene expression (FIG. 1). A549-ARE-luciferase cells express the luciferase gene driven by a minimal promoter and an enhancer element containing an NRF2 binding site (Antioxidant Response Element, ARE).
(§1) Representative compounds were assayed to assess the potency of inhibition in an A549 NRF2-ARE-Fluc stable cell line (A549 Nrf2 assay), in an H838 NRF2-ARE-Fluc stable cell line (H838 Nrf2 assay), and in an H1437 NRF2-ARE-Fluc stable cell line (H1437 Nrf2 assay) (see Table 3).

[2] = system: H1437 NRF2-ARE-Fluc stable cell line; experiment: H1437 Nrf2 assay: NRF2-ARE firefly luciferase reporter gene assay; type: cell-based; settings: read-out: Potency of inhibition, H1437
Excerpt: H1437 is another NSCLC cell line with LOF Keap1 activity and constitutive translocation of NRF2 into the nucleus. A firefly luciferase reporter construct driven by a minimal promoter of NRF2-specific ARE is stably expressed in the H1437 cells. This cell line was used as a confirmation assay to make sure hits identified from primary screening and that passed counterscreen assays worked in different cell types with a constitutively active NRF2 pathway (deficiency in Keap1).
This assay was very similar to the primary assay except that the cell line was changed. […] The final concentration of DMSO was maintained at 0.46%. Control compounds Budesonide and Staurosporine were both added at a concentration of 2 mM and Budesonide was also added as a 1:10 titration, starting at 200 μM, to achieve dose-response. After an 18-24 hour incubation at 37° C., 95% humidity, and 5% CO2, 1 μL of 5× CellTiter-Fluor non-lytic cell viability assay reagent (Promega, Madison Wis.) was added into the each well of the plates. The plates were then incubated for 30 minutes at room temperature before they were read on a ViewLux plate imager (Perkin Elmer, Waltham Mass.) using an excitation wavelength of 405 nm and an emission wavelength of 525 nm.
as §1

[3] = Homo sapiens, NCI-H1437, H1437 NRF2-ARE-Fluc stable cell line
[4] = H1437 NRF2-ARE-Fluc stable cell line

Row | SMILES | pIC50 ([1]; Homo sapiens) | pIC50 [2, 3] | pIC50 [2, 4] | pIC50 [1]
1 | O=C(Nc1ncc(Cc2ccc(C(F)(F)F)cc2)s1)c1ccn(-c2ccccc2)n1 [Compound 110] | > 5.30 | 4.60 to 5.30 |  | 
2 | O=C(Nc1nc2cc(C(F)(F)F)ccc2s1)c1ccc(-c2cccc([N+](=O)[O-])c2)o1 [Compound 111] | < 4.60 | < 4.60 |  | 
3 | COc1ccc(CC(=O)Nc2nc(-c3ccc4c(c3)CCN4C(=O)c3ccccc3C)c(C)s2)cn1 [Compound 112] | > 5.30 | > 5.30 |  | 
4 | CCc1ccccc1C(=O)N1CCc2cc(-c3nc(NC(=O)Cc4ccc5c(c4)OCO5)sc3C)ccc21 [Compound 113] | > 5.30 | < 4.60 |  | 
5 | Cc1sc(NC(=O)Cc2ccc3c(c2)OCO3)nc1-c1ccc2c(c1)CCN2C(=O)c1ccccc1OC(F)(F)F [Compound 114] | > 5.30 | < 4.60 |  | 
6 | Cc1sc(NC(=O)Cc2ccc3c(c2)OCO3)nc1-c1ccc2c(c1)CCN2C(=O)c1ccccc1F [Compound 115] | > 5.30 | > 5.30 |  | 
7 | Cc1sc(NC(=O)Cc2ccc3c(c2)OCO3)nc1-c1ccc2c(c1)CCN2C(=O)c1ccccc1Cl [Compound 116] | > 5.30 | < 4.60 |  | 
8 | O=C(Nc1ncc(Cc2ccc(C(F)(F)F)cc2)s1)c1ccn(-c2cccc([N+](=O)[O-])c2)n1 [Compound 117] | > 5.30 | < 4.60 |  | 
9 | O=C(Nc1ncc(Cc2ccc(C(F)(F)F)cc2)s1)c1c[nH]c(-c2ccccc2)n1 [Compound 118] | 4.60 to 5.30 | < 4.60 |  | 
10 | COc1ccccc1C(=O)N1CCc2cc(-c3nc(NC(=O)Cc4ccc5c(c4)OCO5)sc3C)ccc21 [Compound 120] | > 5.30 | < 4.60 |  | 
11 | Cc1sc(NC(=O)Cc2ccc3c(c2)OCO3)nc1-c1ccc2c(c1)CCN2C(=O)c1ccccc1C(F)(F)F [Compound 121] | > 5.30 | < 4.60 |  | 
12 | Cc1ccccc1S(=O)(=O)N1CCc2cc(-c3nc(NC(=O)Cc4ccccc4F)sc3C)ccc21 [Compound 122] | > 5.30 | > 5.30 |  | 
13 | Cc1ccccc1S(=O)(=O)N1CCc2cc(-c3nc(NC(=O)Cc4ccccc4Cl)sc3C)ccc21 [Compound 123] | > 5.30 | < 4.60 |  | 
14 | Cc1ccccc1S(=O)(=O)N1CCc2cc(-c3nc(NC(=O)Cc4cccc(F)c4)sc3C)ccc21 [Compound 124] | > 5.30 |  | > 5.30 | 
15 | Cc1ccccc1S(=O)(=O)N1CCc2cc(-c3nc(NC(=O)Cc4cccc(Cl)c4)sc3C)ccc21 [Compound 125] | > 5.30 | 4.60 to 5.30 |  | 
16 | Cc1ccccc1S(=O)(=O)N1CCc2cc(-c3nc(NC(=O)Cc4cccc(F)c4)sc3C)ccc21 [Compound 126] |  |  | < 4.60 | > 5.30
17 | Cc1ccccc1S(=O)(=O)N1CCc2cc(-c3nc(NC(=O)Cc4ccccn4)sc3C)ccc21 [Compound 127] | 4.60 to 5.30 | 4.60 to 5.30 |  | 
18 | Cc1ccccc1CC(=O)Nc1nc(-c2ccc3c(c2)CCN3S(=O)(=O)c2ccccc2C)c(C)s1 [Compound 128] | > 5.30 | > 5.30 |  | 
19 | Cc1ccccc1S(=O)(=O)N1CCc2cc(-c3nc(NC(=O)Cc4ccccc4C(F)(F)F)sc3C)ccc21 [Compound 129] | > 5.30 | < 4.60 |  | 
20 | Cc1ccccc1S(=O)(=O)N1CCc2cc(-c3nc(NC(=O)Cc4cccnc4)sc3C)ccc21 [Compound 130] | > 5.30 | > 5.30 |  | 
21 | Cc1cccc(CC(=O)Nc2nc(-c3ccc4c(c3)CCN4S(=O)(=O)c3ccccc3C)c(C)s2)c1 [Compound 131] | 4.60 to 5.30 | 4.60 to 5.30 |  | 
22 | Cc1ccccc1S(=O)(=O)N1CCc2cc(-c3nc(NC(=O)Cc4cccc(C(F)(F)F)c4)sc3C)ccc21 [Compound 132] | 4.60 to 5.30 | 4.60 to 5.30 |  | 
23 | Cc1ccc(CC(=O)Nc2nc(-c3ccc4c(c3)CCN4S(=O)(=O)c3ccccc3C)c(C)s2)cc1 [Compound 133] | > 5.30 | < 4.60 |  | 
24 | Cc1ccccc1S(=O)(=O)N1CCc2cc(-c3nc(NC(=O)Cc4ccc(C(F)(F)F)cc4)sc3C)ccc21 [Compound 134] | > 5.30 | < 4.60 |  | 

The next lines start with the values.

Row | pIC50 ([1]; Homo sapiens) | pIC50 [2, 3] | pIC50 [2, 4] | pIC50 [1] | SMILES
25 | > 5.30 | 4.60 to 5.30 |  |  | Cc1ccccc1S(=O)(=O)N1CCc2cc(-c3nc(NC(=O)Cc4ccc(Cl)cc4)sc3C)ccc21 [Compound 135]
26 | > 5.30 | > 5.30 |  |  | Cc1ccccc1S(=O)(=O)N1CCc2cc(-c3nc(NC(=O)Cc4ccncc4)sc3C)ccc21 [Compound 136]
27 | > 5.30 | < 4.60 |  |  | O=C(Nc1cccc(Nc2ccccc2)c1)c1ccc(-c2cccc([N+](=O)[O-])c2)o1 [Compound 137]
28 | > 5.30 | < 4.60 |  |  | Cc1sc(NC(=O)Cc2ccc3c(c2)OCO3)nc1-c1ccc2c(c1)CCN2C(=O)c1ccccc1C(C)C [Compound 138]
29 | 4.60 to 5.30 | > 5.30 |  |  | Cc1ncccc1C(=O)N1CCc2cc(-c3nc(NC(=O)Cc4ccc5c(c4)OCO5)sc3C)ccc21 [Compound 139]
30 | > 5.30 | > 5.30 |  |  | Cc1ccncc1C(=O)N1CCc2cc(-c3nc(NC(=O)Cc4ccc5c(c4)OCO5)sc3C)ccc21 [Compound 140]
31 | > 5.30 | < 4.60 |  |  | Cc1cccnc1C(=O)N1CCc2cc(-c3nc(NC(=O)Cc4ccc5c(c4)OCO5)sc3C)ccc21 [Compound 141]
32 | 4.60 to 5.30 | < 4.60 |  |  | O=C(Nc1cccc(Cc2ccccc2)n1)c1ccc(-c2cccc([N+](=O)[O-])c2)o1 [Compound 142]
33 | > 5.30 | < 4.60 |  |  | O=C(Nc1cc(Cc2ccccc2)ccn1)c1ccc(-c2cccc([N+](=O)[O-])c2)o1 [Compound 150]
34 | < 4.60 | < 4.60 |  |  | O=C(Nc1ncc(Cc2ccc(C(F)(F)F)cc2)s1)c1ncc(-c2ccccc2)[nH]1 [Compound 151]
35 | > 5.30 | > 5.30 |  |  | Cc1nc(C(=O)N2CCc3cc(-c4nc(NC(=O)Cc5ccc6c(c5)OCO6)sc4C)ccc32)c(C)o1 [Compound 157]
36 | > 5.30 | < 4.60 |  |  | Cc1sc(NC(=O)Cc2ccc3c(c2)OCO3)nc1-c1ccc2c(c1)CCN2C(=O)c1cnoc1C(C)C [Compound 158]
37 | > 5.30 | > 5.30 |  |  | Cc1occc1C(=O)N1CCc2cc(-c3nc(NC(=O)Cc4ccc5c(c4)OCO5)sc3C)ccc21 [Compound 159]
38 | < 4.60 | < 4.60 |  |  | Cc1onc(-c2ccccc2)c1C(=O)N1CCc2cc(-c3nc(NC(=O)Cc4ccc5c(c4)OCO5)sc3C)ccc21 [Compound 160]
39 | > 5.30 | > 5.30 |  |  | Cc1sc(NC(=O)Cc2ccc3c(c2)OCO3)nc1-c1ccc2c(c1)CCN2C(=O)c1cncn1C [Compound 161]
40 | > 5.30 | > 5.30 |  |  | CC1=C(C(=O)N2CCc3cc(-c4nc(NC(=O)Cc5ccc6c(c5)OCO6)sc4C)ccc32)OCCO1 [Compound 162]
41 | > 5.30 | < 4.60 |  |  | O=C(Nc1ncc(Cc2ccc(C(F)(F)F)cc2)s1)c1cn(-c2ccccc2)cn1 [Compound 164]
42 | 4.60 to 5.30 | 4.60 to 5.30 |  |  | O=C(Nc1cncc(Cc2ccccc2)c1)c1ccc(-c2cccc([N+](=O)[O-])c2)o1 [Compound 170]
43 | 4.60 to 5.30 | 4.60 to 5.30 |  |  | O=C(Nc1ncc(Cc2ccc(C(F)(F)F)cc2)s1)c1ccn(-c2cccnc2)n1 [Compound 175]
44 | 4.60 to 5.30 | 4.60 to 5.30 |  |  | O=C(Nc1ccnc(Cc2ccccc2)c1)c1ccc(-c2cccc([N+](=O)[O-])c2)o1 [Compound 177]
45 | 4.60 to 5.30 | < 4.60 |  |  | Cc1sc(NC(=O)Cc2ccc3c(c2)OCO3)nc1-c1ccc2c(c1)CCN2C(=O)CN(C)C [Compound 180]
